Patent publication US11208407B2, “Substituted phenyl compounds as indoleamine 2,3-dioxygenase (IDO) inhibitors” (Merck Sharp & Dohme Corp., priority 2017, dated 2021)

Target: IDO1 (Homo sapiens, UniProt P14902)
Test: IDO1 Cellular Assay in HeLa Cells Stimulated with IFNγ
Assay type: cell-based
Conditions: IFNγ 100 ng/mL, 300 uM L-tryptophan, about 48 hours, read-out: IDO HeLa Cell Assay, IC50
Experimental: Biological Assays IDO1 Cellular Assay in HeLa Cells Stimulated with IFNγ
HeLa cells were cultured in complete HeLa culture medium (90% EMEM, 10% heat-inactivated fetal bovine serum) and expanded to about 1×10^9 cells. The cells were then collected and frozen down at 1×10^7 cells/vial in 1 mL frozen medium (90% complete HeLa culture medium, 10% DMSO).
Compounds to be tested were serially diluted in ten 3-fold steps in DMSO starting from 10 mM DMSO stocks in Echo low volume plate(s). Compound dilutions or DMSO alone were then dispensed from the dilution plate(s) into Greiner black 384-well assay plate(s) (catalog #781086, 50 nL/well) using an Echo 550 acoustic liquid handler (Labcyte).
Frozen HeLa cells were thawed and transferred into HeLa assay medium (99% complete HeLa culture medium, 1% Pen/Strep) with 20 mL medium/vial of cells. The cells were spun down at 250 g in a table top centrifuge for 5 min and suspended in same volume of HeLa assay medium. The cells were then counted and adjusted to a density of 2×10^5 cells/mL in HeLa assay medium. Sterile L-tryptophan were added to the cells with final concentration of 300 uM L-tryptophan. A small aliquot (2 mL/plate) of HeLa cells were set aside and were not treated with IFNγ, to serve as the Max-E control.
HeLa cells with and without IFNγ were dispensed to the respective wells of 384-well assay plates containing the compounds. The plates were incubated for about 48 hours at a 37° C., 5% CO2 incubator. Afterwards, 12 μL of 0.5 M methyl isonipecotate in dimethyl sulfoxide were added into each well and the plates were sealed and incubated at 37° C. without CO2 overnight. The plates were centrifuged for 1 min at 200×g. The resulting fluorescence was measured in a Spectramax plate reader (Molecular Devices) with a 400 nm excitation filter and a 510 nm emission filter.
The fluorescence intensity of each well was corrected for the background observed in wells with non-IFNγ-treated cells and was expressed as a fraction of the intensity observed in wells of IFNγ-treated cells and DMSO only. Potencies were calculated by linear least squares fit to the four parameter logistic IC50 equation.

Sequence of IDO1 (P14902 whole entry): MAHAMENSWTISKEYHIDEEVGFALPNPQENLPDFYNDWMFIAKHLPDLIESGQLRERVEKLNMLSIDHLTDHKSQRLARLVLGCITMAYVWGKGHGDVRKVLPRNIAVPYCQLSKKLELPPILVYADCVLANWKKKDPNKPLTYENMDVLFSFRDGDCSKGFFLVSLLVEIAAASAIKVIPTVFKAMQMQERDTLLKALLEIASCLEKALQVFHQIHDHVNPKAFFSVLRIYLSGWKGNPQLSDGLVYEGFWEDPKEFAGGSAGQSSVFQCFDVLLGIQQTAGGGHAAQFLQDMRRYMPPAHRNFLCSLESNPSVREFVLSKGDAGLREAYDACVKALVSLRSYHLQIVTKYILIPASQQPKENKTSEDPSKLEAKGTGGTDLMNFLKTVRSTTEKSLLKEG

IC50 [nM] | Structure (SMILES)
5.09 | N#Cc1cccc(NC(=O)c2ccc(C3(c4nc5ncc(C#N)cc5[nH]4)CC(F)(F)C3)cc2)c1 [Example 38, 4-[1-(6-cyano-1H-imidazo[4,5-b]pyridin-2-yl)-3,3-difluorocyclobutyl]-N-(3-cyanophenyl)benzamide]
590 | Cc1cccc(NC(=O)c2ccc(C3(c4nc5ncc(C#N)cc5[nH]4)CC(F)(F)C3)cc2)n1 [Example 29, 4-(1-(6-Cyano-1H-imidazo[4,5-b]pyridin-2-yl)-3,3-difluorocyclobutyl)-N-(6-methylpyridin-2-yl)benzamide]
176 | C=Cc1cc(C2(c3nc4cc(C#N)cnc4[nH]3)CCC2)ccc1Nc1ccn(C)n1 [Example 20, 2-(1-(4-((1-Methyl-1H-pyrazol-3-yl)amino)-3-vinylphenyl)cyclobutyl)-3H-imidazo[4,5-b]pyridine-6-carbonitrile]
2.09 | O=C(Nc1cccc(F)c1)c1ccc(C2(c3nc4ncc(C(F)(F)F)cc4[nH]3)CCC2)cc1 [Example 31, N-(3-fluorophenyl)-4-{1-[6-(trifluoromethyl)-1H-imidazo[4,5-b]pyridin-2-yl]cyclobutyl}benzamide]
2.65 | O=C(Nc1ccc(F)cc1F)c1ccc(C2(c3nc4ncc(C(F)(F)F)cc4[nH]3)CCC2)cc1 [Example 32, N-(2,4-difluorophenyl)-4-{1-[6-(trifluoromethyl)-1H-imidazo[4,5-b]pyridin-2-yl]cyclobutyl}benzamide]
1.97 | N#Cc1cnc2nc(C3(c4ccc(NC(=O)c5cccc(Cl)c5)cc4)CCC3)[nH]c2c1 [Example 2, 3-Chloro-N-(4-(1-(6-cyano-1H-imidazo[4,5-b]pyridin-2-yl)cyclobutyl)phenyl)benzamide]
1.73 | O=C(Nc1ccc(C2(c3nc4cc(Br)cnc4[nH]3)CCC2)cc1Cl)c1cccc(Br)c1 [Example 12, 3-Bromo-N-(4-(1-(6-bromo-3H-imidazo[4,5-b]pyridin-2-yl)cyclobutyl)-2-chlorophenyl)benzamide]
152 | O=C(NC1CCCCC1)c1ccc(C2(c3nc4ncc(C(F)(F)F)cc4[nH]3)CCC2)cc1 [Example 34, N-cyclohexyl-4-{1-[6-(trifluoromethyl)-1H-imidazo[4,5-b]pyridin-2-yl]cyclobutyl}benzamide]
3.18 | N#Cc1cccc(C(=O)Nc2ccc(C3(c4nc5cc(C(F)(F)F)cnc5[nH]4)CCC3)cc2)c1 [Example 6, 3-Cyano-N-(4-(1-(6-(trifluoromethyl)-3H-imidazo[4,5-b]pyridin-2-yl)cyclobutyl)phenyl)benzamide]
7.64 | COc1cc(C(F)(F)F)ncc1-c1ccc(C2(c3nc4cc(C(F)(F)F)cnc4[nH]3)COC2)cc1 [Example 41, 2-(3-{4-[4-methoxy-6-(trifluoromethyl)pyridin-3-yl]phenyl}oxetan-3-yl)-6-(trifluoromethyl)-3H-imidazo[4,5-b]pyridine]
41.8 | N#Cc1cnc2[nH]c(C3(c4ccc(NC(=O)OC5CC5)cc4)CCC3)nc2c1 [Example 22, Cyclopropyl (4-(1-(6-cyano-3H-imidazo[4,5-b]pyridin-2-yl)cyclobutyl)phenyl)carbamate]
5.09 | N#Cc1cccc(NC(=O)c2ccc(C3(c4nc5ncc(C(F)(F)F)cc5[nH]4)CCC3)cc2)c1 [Example 30, N-(3-cyanophenyl)-4-{1-[6-(trifluoromethyl)-1H-imidazo[4,5-b]pyridin-2-yl]cyclobutyl}benzamide]
9.94 | O=C(Nc1cncc(Cl)c1)c1ccc(C2(c3nc4ncc(C(F)(F)F)cc4[nH]3)CCC2)cc1 [Example 33, N-(5-chloropyridin-3-yl)-4-{1-[6-(trifluoromethyl)-1H-imidazo[4,5-b]pyridin-2-yl]cyclobutyl}benzamide]
39.6 | CC(C)CNC(=O)c1ccc(C2(c3nc4ncc(C(F)(F)F)cc4[nH]3)CCC2)cc1 [Example 35, N-(2-methylpropyl)-4-{1-[6-(trifluoromethyl)-1H-imidazo[4,5-b]pyridin-2-yl]cyclobutyl}benzamide]
890 | N#Cc1cnc2nc(C3(c4ccc(C(=O)NC5CCCCC5)cc4)CC(F)(F)C3)[nH]c2c1 [Example 28, 4-(1-(6-Cyano-1H-imidazo[4,5-b]pyridin-2-yl)-3,3-difluorocyclobutyl)-N-cyclohexylbenzamide]
15.9 | Cc1cc(C2(c3nc4cc(C#N)cnc4[nH]3)CCC2)ccc1NC(=O)c1cccc(C#N)c1 [Example 15, 3-Cyano-N-(4-(1-(6-cyano-3H-imidazo[4,5-b]pyridin-2-yl)cyclobutyl)-2-methylphenyl)benzamide]
2.03 | O=C(Nc1cc(Cl)ccc1F)c1ccc(C2(c3nc4ncc(C(F)(F)F)cc4[nH]3)CCC2)cc1 [Example 37, N-(5-chloro-2-fluorophenyl)-4-{1-[6-(trifluoromethyl)-1H-imidazo[4,5-b]pyridin-2-yl]cyclobutyl}benzamide]
7.69 | N#Cc1ccc(F)c(NC(=O)c2ccc(C3(c4nc5ncc(C(F)(F)F)cc5[nH]4)CCC3)cc2)c1 [Example 36, N-(5-cyano-2-fluorophenyl)-4-{1-[6-(trifluoromethyl)-1H-imidazo[4,5-b]pyridin-2-yl]cyclobutyl}benzamide]
140 | N#Cc1cccc(C(=O)Nc2ccc(C3(c4nc5cc(C#N)cnc5[nH]4)CCC3)cc2C#N)c1 [Example 14, 3-cyano-N-(2-cyano-4-(1-(6-cyano-3H-imidazo[4,5-b]pyridin-2-yl)cyclobutyl)phenyl)benzamide]
43.4 | N#Cc1cccc(C(=O)Nc2ccc(C3(c4nc5ccc(Cl)cc5[nH]4)CC(O)C3)cc2)c1 (centres unmarked) [Example 23, N-(4-(1-(6-chloro-1H-benzo[d]imidazol-2-yl)-3-hydroxycyclobutyl)phenyl)-3-cyanobenzamide]
3.01 | O=C(Nc1ccc(C2(c3nc4ccccc4[nH]3)CCC2)cc1)c1cccc(Cl)c1 [Example 4, N-(4-(1-(1H-benzo[d]imidazol-2-yl)cyclobutyl)phenyl)-3-chlorobenzamide]
819 | Cn1ccc(Nc2ccc(C3(c4nc5cc(C#N)cnc5[nH]4)CCC3)cc2CO)n1 [Example 21, 2-(1-(3-(Hydroxymethyl)-4-((1-methyl-1H-pyrazol-3-yl)amino)phenyl)cyclobutyl)-3H-imidazo[4,5-b]pyridine-6-carbonitrile]
7.18 | N#Cc1cccc(C(=O)Nc2ccc(C3(c4nc5cc(C#N)cnc5[nH]4)CCC3)cc2Cl)c1 [Example 13, N-(2-chloro-4-(1-(6-cyano-3H-imidazo[4,5-b]pyridin-2-yl)cyclobutyl)phenyl)-3-cyanobenzamide]
